Type in all cases: biochemical
For assay [1], the system named is human plasma. Put plainly: Human plasma anticoagulation, prothrombin time (PT). To be noted: concentration required to double PT, linear extrapolation. The procedure: (§1) Dog plasma and rat plasma is obtained from conscious mixed-breed hounds (either sex, Hazelton-LRE, Kalamazoo, Mich., U.S.A.) or from anesthetized male Sprague-Dawley rats (Harlan Sprague-Dawley, Inc., Indianapolis, Ind., U.S.A.) by venipuncture into 3.8 percent citrate. Fibrinogen is prepared from in-date ACD human blood as the fraction I-2 according to previous procedures and specifications. […] Human fibrinogen is also purchased as 98 percent pure/plasmin free from American Diagnostica, Greenwich, Conn. Coagulation reagents ACTIN, Thromboplastin, and Human plasma are from Baxter Healthcare Corp., Dade Division, Miami, Fla. Bovine thrombin from Parke-Davis ([…], Mich.) is used for coagulation assays in plasma.
(§2) Coagulation assay procedures are as previously described. […] A CoAScreener coagulation instrument (American LABor, Inc.) is used for all coagulation assay measurements. The prothrombin time (PT) is measured by adding 0.05 mL saline and 0.05 mL Thromboplastin-C reagent to 0.05 mL test plasma. The activated partial thromboplastin time (APTT) is measured by incubation of 0.05 mL test plasma with 0.05 mL Actin reagent for 120 seconds followed by 0.05 mL CaCl2 (0.02M). The thrombin time (TT) is measured by adding 0.05 mL saline and 0.05 mL thrombin (10 NIH units/mL) to 0.05 mL test plasma. The compounds of Formula I are added to human or animal plasma over a wide range of concentrations to determine prolongation effects on the APTT, PT, and TT assays. Linear extrapolations are performed to estimate the concentrations required to double the clotting time for each assay.

For assay [2], the system named is human plasma. Put plainly: Human plasma anticoagulation, thrombin time (TT). To be noted: concentration required to double thrombin time, linear extrapolation. Here is the method: as §1, §2
Assay [3] concerns human plasma. Put plainly: Human plasma anticoagulation, activated partial thromboplastin time (APTT). The settings on record: concentration required to double APTT, linear extrapolation. Here is the method:
as §1, §2

Structures can show the parent of a compound that is named as a salt.

Turning to `N=C(N)c1ccc(CNC(=O)[C@@H]2C[C@@H]3CCCC[C@@H]3N2C(=O)[C@H]2CCCCN2)cc1` (relative stereo) [Example 20, (S-cis)-N-[[4-(aminoiminomethyl)phenyl]methyl]-octahydro-1-D-homoprolyl-1H-indole-2-carboxamide trihydrochloride], in assay [1], the “Human Plasma Anticoagulation 2x Clotting time PT” value is recorded as 600 ng/mL.
Consider `N=C(N)c1ccc(CNC(=O)[C@@H]2C[C@@H]3CCCC[C@@H]3N2C(=O)[C@H]2C[C@H]3CCCC[C@H]3CN2)cc1` (relative stereo) [Example 43, D-3-Piq-cis-Ohi-p-NHCH2 C6 H4 C(NH)NH2.2HCl], for which the “Human Plasma Anticoagulation 2x Clotting time TT” value in assay [2] was 280 ng/mL. The “Human Plasma Anticoagulation 2x Clotting time APTT” value in assay [3] is recorded as 1,100 ng/mL. Moreover, the “Human Plasma Anticoagulation 2x Clotting time PT” value in assay [1] is 930 ng/mL.
In the case of `CCS(=O)(=O)N[C@H](Cc1ccccc1)C(=O)N1CCC[C@H]1C(=O)NCCCCN=C(N)N.Cl` [Example 1, EtSO2 -D-Phe-Pro-Agm.Hcl], the “Human Plasma Anticoagulation 2x Clotting time TT” value in assay [2] is listed as 250 ng/mL.
The same measure, in the same setting: next, `N=C(N)NCCCCCCNC(=O)[C@@H]1CCCN1C(=O)[C@H](N)Cc1ccccc1` [Example 5, D-Phe-Pro-NH(CH2)6 NHC(NH)NH2.HCl]: 30,000 ng/mL; `N=C(N)NCCCCCNC(=O)[C@@H]1CCCN1C(=O)[C@H](N)Cc1ccccc1` [Example 6, D-Phe-Pro-NH(CH2)5 NHC(NH)NH2.HCl]: 390 ng/mL.
Regarding `N=C(N)NCCCNC(=O)[C@@H]1CCCN1C(=O)[C@H](N)Cc1ccccc1` [Example 7, D-Phe-Pro-NH(CH2)3 NHC(NH)NH2.HCl], the “Human Plasma Anticoagulation 2x Clotting time TT” value in assay [2] is listed as 490 ng/mL.
As for `N=C(N)NCc1ccc(CNC(=O)[C@@H]2CCCN2C(=O)[C@H](N)Cc2ccccc2)cc1` [Example 9, D-Phe-Pro-p-NHCH2 C6 H4 CH2 NHC(NH)NH2.2TFA], the “Human Plasma Anticoagulation 2x Clotting time TT” value in assay [2] is > 91,000 ng/mL.
For `NCc1ccc(CNC(=O)[C@@H]2CCCN2C(=O)[C@H](N)Cc2ccccc2)cc1` [Example 10, D-Phe-Pro-p-NHCH2 C6 H4 CH2 NH2.HCl], the “Human Plasma Anticoagulation 2x Clotting time TT” value in assay [2] is recorded as 420 ng/mL.
For `Nc1ccc(CNC(=O)[C@@H]2CCCN2C(=O)[C@H](N)Cc2ccccc2)cc1` [Example 13, D-Phe-Pro-p-NHCH2 C6 H4 NH2.HCl], the “Human Plasma Anticoagulation 2x Clotting time TT” value in assay [2] was 660 ng/mL.
Turning to `CCS(=O)(=O)N[C@H](Cc1ccccc1)C(=O)N1CCC[C@H]1C(=O)NCc1cccc(C(=N)N)c1` [Example 24, EtSO2 -D-Phe-Pro-m-NHCH2 -C6 H4 C(=NH)NH2.HCl], the “Human Plasma Anticoagulation 2x Clotting time TT” value in assay [2] is reported as 1,000 ng/mL. The “Human Plasma Anticoagulation 2x Clotting time PT” value in assay [1] is reported as 25,000 ng/mL.
As for `CCS(=O)(=O)N[C@H](Cc1ccccc1)C(=O)N1CCC[C@H]1C(=O)NCCCc1ccc(C(=N)N)cc1` [Example 30, EtSO2 -D-Phe-Pro-p-NHCH2 CH2 CH2 -C6 H4 C(=NH)NH2.HCl], the “Human Plasma Anticoagulation 2x Clotting time TT” value in assay [2] is listed as 1,000 ng/mL. The “Human Plasma Anticoagulation 2x Clotting time APTT” value in assay [3] is 14,000 ng/mL.
As to `CCS(=O)(=O)N[C@H](Cc1ccccc1)C(=O)N1CCC[C@H]1C(=O)NCCCc1cccc(C(=N)N)c1` [Example 31, EtSO2 -D-Phe-Pro-m-NHCH2 CH2 CH2 -C6 H4 C(=NH)NH2.HCl], the “Human Plasma Anticoagulation 2x Clotting time PT” value in assay [1] is listed as 30,000 ng/mL.
Turning to `CCS(=O)(=O)N[C@H](Cc1ccccc1)C(=O)N1CCC[C@H]1C(=O)NCc1ccc(NC(=N)N)cc1` [Example 34, EtSO2 -D-Phe-Pro-p-NHCH2 C6 H4 NHC(NH)NH2.HCl], in assay [2], the “Human Plasma Anticoagulation 2x Clotting time TT” value is 530 ng/mL. Moreover, the “Human Plasma Anticoagulation 2x Clotting time APTT” value in assay [3] is listed as 4,900 ng/mL. Besides, the “Human Plasma Anticoagulation 2x Clotting time PT” value in assay [1] is 5,500 ng/mL.
As for `N=C(N)Nc1ccc(CNC(=O)[C@@H]2CCCN2C(=O)[C@@H]2NCC[C@@H]3CCCC[C@@H]32)cc1` [Example 38, D-1-piq-pro-p-NHCH2 C6 H4 NHC(NH)NH2.2HCl], the “Human Plasma Anticoagulation 2x Clotting time TT” value in assay [2] is 540 ng/mL. The “Human Plasma Anticoagulation 2x Clotting time APTT” value in assay [3] is 6,100 ng/mL.
In the case of `N=C(N)Nc1ccc(CCNC(=O)[C@@H]2CCCN2C(=O)[C@@H]2NCC[C@@H]3CCCC[C@@H]32)cc1` [Example 39, D-1-piq-Pro-p-NHCH2 CH2 C6 H4 NHC(NH)NH2.2HCl], the “Human Plasma Anticoagulation 2x Clotting time TT” value in assay [2] is reported as 5,300 ng/mL.
For the compound `N=C(N)Nc1cccc(CNC(=O)[C@@H]2CCCN2C(=O)[C@@H]2NCC[C@@H]3CCCC[C@@H]32)c1` [Example 40, D-1-Piq-Pro-m-NHCH2 C6 H4 NHC(NH)NH2.2HCl], in assay [3], the “Human Plasma Anticoagulation 2x Clotting time APTT” value is given as > 91,000 ng/mL. Further, in assay [1], the “Human Plasma Anticoagulation 2x Clotting time PT” value is given as > 91,000 ng/mL.
As to `N=C(N)Nc1cccc(CCNC(=O)[C@@H]2CCCN2C(=O)[C@@H]2NCC[C@@H]3CCCC[C@@H]32)c1` [Example 41, D-1-Piq-Pro-m-NHCH2 CH2 C6 H4 NHC(NH)NH2.2HCl], the “Human Plasma Anticoagulation 2x Clotting time APTT” value in assay [3] is reported as > 91,000 ng/mL. Further, the “Human Plasma Anticoagulation 2x Clotting time PT” value in assay [1] is recorded as > 91,000 ng/mL.
Take `O=C(O)CN[C@H](CC1CCCCC1)C(=O)N1CCC[C@H]1C(=O)NCC1CCNCC1` [Example 53, HO2 CCH2 -D-Cha-Pro-4-NHCH2 -piperidine.HCl]: the “Human Plasma Anticoagulation 2x Clotting time TT” value in assay [2] is reported as 1,400 ng/mL.
For the compound `O=C(O)CN[C@H](CC1CCCCC1)C(=O)N1CCC[C@H]1C(=O)NCCCC1CCNCC1` [Example 55, HO2 CCH2 -D-Cha-Pro-4-NHCH2 CH2 CH2 -piperidine.HCl], in assay [3], the “Human Plasma Anticoagulation 2x Clotting time APTT” value is > 91,000 ng/mL. In addition, in assay [1], the “Human Plasma Anticoagulation 2x Clotting time PT” value is on record as > 91,000 ng/mL.
With `N=C(N)NCCCCNC(=O)[C@@H]1CCCN1C(=O)[C@@H]1NCC[C@H]2CCCC[C@H]21` [Example 61, N-[4-[(aminoiminomethyl)amino]butyl]-1-[[(4aR,8aR)-decahydro-1(R)-isoquinolinyl]carbonyl]-1-prolinamide trihydrochloride], the “Human Plasma Anticoagulation 2x Clotting time TT” value in assay [2] is listed as 45 ng/mL.
The same measure, in the same setting: next, `Nc1ccc(CNC(=O)[C@@H]2CCCN2C(=O)[C@@H](CC2CCCCC2)NCC(=O)O)cc1` [Example 62, HO2 CCH2 -D-Cha-Pro-4-NHCH2 C6 H4 NH2.HCl]: 54 ng/mL; `Nc1ccc(CCNC(=O)[C@@H]2CCCN2C(=O)[C@@H](CC2CCCCC2)NCC(=O)O)cc1` [Example 63, HO2 CCH2 -D-Cha-Pro-4-NHCH2 CH2 C6 H4 NH2.HCl]: 680 ng/mL.
For the compound `N=C(N)c1ccc(CNC(=O)[C@@H]2CCCN2C(=O)[C@@H](CC2CCCCC2)NCC(=O)O)s1` [Example 65, N-(carboxymethyl)-D-cyclohexylalanyl-N-[[5-(aminoiminomethyl)thiophen-2-yl]methyl]-L-prolinamide hydrochloride], the “Human Plasma Anticoagulation 2x Clotting time TT” value in assay [2] is reported as 1 ng/mL. The “Human Plasma Anticoagulation 2x Clotting time APTT” value in assay [3] is on record as 48 ng/mL.
As to `N=C(N)c1ccc(CNC(=O)[C@@H]2CCCN2C(=O)[C@@H](CC2CCCCC2)NCCCC(=O)O)cc1` [Example 85, N-(3-carboxypropyl)-D-cyclohexylalanyl-N-[[4-(aminoiminomethyl)phenyl]methyl]-L-prolinamide hydrochloride], the “Human Plasma Anticoagulation 2x Clotting time TT” value in assay [2] is reported as 4.9 ng/mL. The “Human Plasma Anticoagulation 2x Clotting time APTT” value in assay [3] is given as 100 ng/mL.
Regarding `CCC(CC)C(=O)N[C@@H](CCC(=O)O)C(=O)N1CCC[C@H]1C(=O)NCc1ccc(C(=N)N)cc1` [Example 90, (C2 H5)2 CHCO-Glu-Pro-p-NHCH2 C6 H4 C(NH)NH2.HCl], the “Human Plasma Anticoagulation 2x Clotting time TT” value in assay [2] was 330 ng/mL.

(Values after patent publication US5710130A, “Antithrombotic agents” (Eli Lilly and Company, priority 1995, dated 1998).)
